Common to all, as to format: biochemical
The target of one test is Xa (Homo sapiens, UniProt P00742). The experiment in a line: Determination of inhibition constants for Xa. Here is the method: (§1) The inhibitory effect for the individual enzymes was determined in analogy to a previously disclosed method (Stürzebecher et al., 1997).
(§2) For zero order kinetics, the reaction was stopped after 20 min by adding 25 μl of acetic acid (50% v/v), and the absorption at 405 nm was determined using a Microplate Reader (Multiscan Ascent, from Thermo). In the case of pseudo-first order kinetics, the reaction rates in the equilibrium state were ascertained by recording the reaction kinetics. The Ki values were ascertained either in accordance with Dixon (1953) by linear regression using a computer program or by parameter fitting in accordance with the rate equation for competitive inhibition. The Ki values are the average of at least two determinations.

The target in another test is Thrombin (Homo sapiens, UniProt P00734). Briefly: Determination of inhibition constants for thrombin. Here is the method: as §1, §2
Another test addresses plasmin (Homo sapiens, UniProt P00747). The experiment in a line: Determination of inhibition constants for plasmin. Set-up: purchased Calbiochem. Here is the method: as §1, §2
The target of a further test is plasma kallikrein (Homo sapiens, UniProt P03952). Briefly: Determination of inhibition constants for PK. More on the design: purchased Enzyme Research Lab. / Enzyme Research Laboratories. Here is the method:
as §1, §2

[1] abbreviates: 25° C., substrate Chromozym PL, pH 8.0, read-out: Plasmin [Ki].
[2] abbreviates: 25° C., substrate S2302, pH 8.0, read-out: PK [Ki].
Where [3] appears, read: summary of results, read-out: Ki value of the plasmin inhibition.
The mark [4] stands for this setting: summary of results, read-out: Ki value of the plasma kallikrein inhibition.

The structures appear in SMILES notation. Where two headings read alike, the source gives them in different places. Bounds are passed on as bounds.

plasmin, sequence (P00747 581-810 limits assumed): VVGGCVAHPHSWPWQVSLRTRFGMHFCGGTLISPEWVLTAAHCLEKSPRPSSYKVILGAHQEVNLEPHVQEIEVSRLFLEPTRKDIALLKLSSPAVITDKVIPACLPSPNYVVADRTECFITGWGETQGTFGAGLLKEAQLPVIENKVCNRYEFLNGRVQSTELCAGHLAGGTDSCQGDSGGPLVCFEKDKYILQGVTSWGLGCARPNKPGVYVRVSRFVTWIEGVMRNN
plasmin, sequence (P00747 97-580 partner limits assumed): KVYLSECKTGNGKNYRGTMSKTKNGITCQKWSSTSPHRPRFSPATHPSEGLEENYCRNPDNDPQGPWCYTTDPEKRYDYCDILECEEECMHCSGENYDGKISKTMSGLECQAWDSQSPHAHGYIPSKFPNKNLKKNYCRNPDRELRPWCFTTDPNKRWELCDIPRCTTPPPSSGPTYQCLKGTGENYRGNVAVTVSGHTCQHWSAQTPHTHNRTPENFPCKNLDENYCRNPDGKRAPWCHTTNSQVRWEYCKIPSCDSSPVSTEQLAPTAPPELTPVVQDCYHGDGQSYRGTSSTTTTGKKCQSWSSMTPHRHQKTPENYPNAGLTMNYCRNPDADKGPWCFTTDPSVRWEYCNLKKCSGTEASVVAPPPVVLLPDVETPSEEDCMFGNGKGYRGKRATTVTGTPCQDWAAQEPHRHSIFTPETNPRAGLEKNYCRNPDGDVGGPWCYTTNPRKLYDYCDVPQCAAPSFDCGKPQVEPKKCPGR
plasma kallikrein, sequence (P03952 391-638 limits assumed): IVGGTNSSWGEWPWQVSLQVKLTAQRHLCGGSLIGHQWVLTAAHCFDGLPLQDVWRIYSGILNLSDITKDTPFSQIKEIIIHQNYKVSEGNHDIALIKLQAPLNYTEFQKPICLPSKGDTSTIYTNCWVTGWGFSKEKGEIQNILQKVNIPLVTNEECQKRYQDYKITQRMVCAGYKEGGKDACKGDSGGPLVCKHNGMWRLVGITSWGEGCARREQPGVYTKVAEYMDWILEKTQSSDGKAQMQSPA
plasma kallikrein, sequence (P03952 20-390 partner limits assumed): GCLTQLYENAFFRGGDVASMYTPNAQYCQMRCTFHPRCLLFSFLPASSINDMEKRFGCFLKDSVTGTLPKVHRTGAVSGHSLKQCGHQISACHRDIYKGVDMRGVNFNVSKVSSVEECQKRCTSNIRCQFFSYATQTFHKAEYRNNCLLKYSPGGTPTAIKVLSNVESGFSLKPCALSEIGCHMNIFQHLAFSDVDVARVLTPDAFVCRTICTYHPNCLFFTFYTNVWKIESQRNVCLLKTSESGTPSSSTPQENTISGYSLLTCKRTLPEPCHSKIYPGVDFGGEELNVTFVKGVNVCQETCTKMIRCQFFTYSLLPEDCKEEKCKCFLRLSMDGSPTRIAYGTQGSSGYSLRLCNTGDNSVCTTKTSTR
Xa, sequence (P00742 235-488 limits assumed): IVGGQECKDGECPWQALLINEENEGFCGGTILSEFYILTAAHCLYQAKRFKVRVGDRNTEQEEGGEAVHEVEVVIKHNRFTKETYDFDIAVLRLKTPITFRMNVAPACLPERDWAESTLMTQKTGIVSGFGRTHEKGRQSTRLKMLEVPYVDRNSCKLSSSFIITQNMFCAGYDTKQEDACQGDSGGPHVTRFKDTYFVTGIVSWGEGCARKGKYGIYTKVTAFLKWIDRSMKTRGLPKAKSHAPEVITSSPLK
Xa, sequence (P00742 41-179 limits assumed): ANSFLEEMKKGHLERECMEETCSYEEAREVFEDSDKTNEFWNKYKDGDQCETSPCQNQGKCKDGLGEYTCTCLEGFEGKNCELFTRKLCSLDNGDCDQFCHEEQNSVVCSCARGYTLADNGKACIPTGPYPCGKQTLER

For the molecule `N=C(N)c1ccc(CNC(=O)[C@H](Cc2cccc(CN)c2)NC(=O)[C@@H](CCCc2ccccc2)NS(=O)(=O)Cc2ccc(C(=O)O)cc2)cc1` [compound 2], the Ki was < 100 nM at Xa, < 1000 nM on Thrombin, < 10 nM on plasmin (setting [1]) and < 10 nM on plasma kallikrein (setting [2]).
Regarding `N=C(N)Nc1ccc(CNC(=O)[C@H](Cc2cccc(CN)c2)NC(=O)[C@@H](CCCc2ccccc2)NS(=O)(=O)Cc2cccc(C(=O)O)c2)cc1` [compound 4, 3-HOOC-Bzls-d-Ppg-Phe(3-Ame)-4-guanidinobenzylamide×2 acetate], the Ki at Xa was > 1000 nM; at Thrombin, > 1000 nM; at plasmin (setting [1]), < 100 nM; at plasma kallikrein (setting [2]), < 10 nM.
Take `N=C(N)c1ccc(CNC(=O)[C@H](Cc2cccc(CN)c2)NC(=O)[C@@H](CCCc2ccc(Cl)cc2)NS(=O)(=O)Cc2ccccc2)cc1` [compound 7]: the Ki was < 10 nM on Xa, < 100 nM on Thrombin, < 10 nM at plasmin (setting [1]) and < 10 nM on plasma kallikrein (setting [2]).
For the molecule `N=C(N)c1ccc(CNC(=O)[C@H](Cc2cccc(CN)c2)NC(=O)[C@@H](CCCc2ccccc2Cl)NS(=O)(=O)Cc2ccccc2)cc1` [compound 8], the Ki at Xa is < 100 nM; on Thrombin, < 100 nM; at plasmin (setting [1]), < 10 nM; at plasma kallikrein (setting [2]), < 10 nM.
For the molecule `Cc1ccc(CCC[C@@H](NS(=O)(=O)Cc2ccccc2)C(=O)N[C@@H](Cc2cccc(CN)c2)C(=O)NCc2ccc(C(=N)N)cc2)cc1` [compound 9], the Ki was < 100 nM at Xa, < 1000 nM on Thrombin, < 10 nM on plasmin (setting [1]) and < 10 nM on plasma kallikrein (setting [2]).
As to `COc1ccc(CCC[C@@H](NS(=O)(=O)Cc2ccccc2)C(=O)N[C@@H](Cc2cccc(CN)c2)C(=O)NCc2ccc(C(=N)N)cc2)cc1` [compound 10], the Ki on Xa is < 100 nM; on Thrombin, < 1000 nM; at plasmin (setting [1]) it was < 10 nM; at plasma kallikrein (setting [2]) it was < 10 nM.
Regarding `N=C(N)c1ccc(CNC(=O)[C@H](Cc2cccc(CN)c2)NC(=O)[C@@H](CCCc2ccc(C(F)(F)F)cc2)NS(=O)(=O)Cc2ccccc2)cc1` [compound 11], the Ki was < 10 nM on Xa, < 1000 nM at Thrombin, < 10 nM at plasmin (setting [1]) and < 10 nM at plasma kallikrein (setting [2]).
`N=C(N)c1ccc(CNC(=O)[C@H](Cc2cccc(CN)c2)NC(=O)[C@@H](CCCc2ccc(OC(F)(F)F)cc2)NS(=O)(=O)Cc2ccccc2)cc1` [compound 12]: the inhibition constant Ki at Xa is < 100 nM; at Thrombin, < 1000 nM; on plasmin (setting [1]), < 10 nM; at plasma kallikrein (setting [2]) it was < 10 nM.
Take `CC(C)(C)c1ccc(C[C@@H](NS(=O)(=O)Cc2ccccc2)C(=O)N[C@@H](Cc2cccc(CN)c2)C(=O)NCc2ccc(C(=N)N)cc2)cc1` [compound 13]: the inhibitory constant (Ki) at Xa is < 100 nM; at Thrombin, < 1000 nM; on plasmin (setting [1]), < 100 nM; at plasmin (setting [3]) it was < 5 nM; at plasma kallikrein (setting [2]) it was < 10 nM.
Turning to `N=C(N)c1ccc(CNC(=O)[C@H](Cc2cccc(CN)c2)NC(=O)[C@@H](Cc2ccc(-c3ccccc3)cc2)NS(=O)(=O)Cc2ccccc2)cc1` [compound 14], the inhibition constant (Ki) is < 100 nM on Xa; < 1000 nM on Thrombin; < 10 nM on plasmin (setting [1]); < 5 nM on plasmin (setting [3]); < 10 nM at plasma kallikrein (setting [2]).
As to `N=C(N)c1ccc(CNC(=O)[C@H](Cc2cccc(CN)c2)NC(=O)[C@@H](Cc2cccc3ccccc23)NS(=O)(=O)Cc2ccccc2)cc1` [compound 15], the Ki on Xa is < 100 nM; on Thrombin, < 100 nM; at plasmin (setting [1]), < 10 nM; at plasma kallikrein (setting [2]) it was < 10 nM.
For `N=C(N)c1ccc(CNC(=O)[C@H](Cc2cccc(CN)c2)NC(=O)[C@@H](Cc2cccc3ccccc23)NS(=O)(=O)Cc2ccc(C(=O)O)cc2)cc1` [compound 16], the Ki was < 1000 nM on Xa, < 1000 nM on Thrombin, < 10 nM on plasmin (setting [1]) and < 10 nM at plasma kallikrein (setting [2]).
`N=C(N)c1ccc(CNC(=O)[C@H](Cc2cccc(CN)c2)NC(=O)[C@@H](Cc2ccc3ccccc3c2)NS(=O)(=O)Cc2ccccc2)cc1` [compound 17]: the Ki at Xa is < 100 nM; at Thrombin it was < 1000 nM; at plasmin (setting [1]) it was < 10 nM; at plasma kallikrein (setting [2]), < 10 nM.
Turning to `N=C(N)c1ccc(CNC(=O)[C@H](Cc2cccc(CN)c2)NC(=O)[C@@H](Cc2ccc3ccccc3c2)NS(=O)(=O)Cc2cccc(C(=O)O)c2)cc1` [compound 18], the Ki on Xa is < 100 nM; at Thrombin, > 1000 nM; at plasmin (setting [1]), < 10 nM; on plasma kallikrein (setting [2]), < 10 nM.
As to `N=C(N)c1ccc(CNC(=O)[C@H](Cc2cccc(CN)c2)NC(=O)[C@@H](Cc2ccc3ccccc3c2)NS(=O)(=O)Cc2ccc(C(=O)O)cc2)cc1` [compound 19], the Ki at Xa is < 1000 nM; at Thrombin, < 1000 nM; on plasmin (setting [1]), < 10 nM; on plasma kallikrein (setting [2]), < 10 nM.
Regarding `N=C(N)c1ccc(CNC(=O)[C@H](Cc2cccc(CN)c2)NC(=O)[C@@H](CC2CCCCC2)NS(=O)(=O)Cc2ccccc2)cc1` [compound 20], the Ki was < 100 nM on Xa, < 1000 nM on Thrombin, < 10 nM on plasmin (setting [1]) and < 10 nM on plasma kallikrein (setting [2]).
For `N=C(N)c1ccc(CNC(=O)[C@H](Cc2cccc(CN)c2)NC(=O)[C@@H](CCCC2CCCCC2)NS(=O)(=O)Cc2ccccc2)cc1` [compound 21], the Ki at Xa was < 100 nM; at Thrombin it was < 1000 nM; at plasmin (setting [1]), < 10 nM; at plasma kallikrein (setting [2]), < 10 nM.
Turning to `N=C(N)c1ccc(CNC(=O)[C@H](Cc2cccc(CN)c2)NC(=O)[C@H](NS(=O)(=O)Cc2ccccc2)C(c2ccccc2)c2ccccc2)cc1` [compound 22], the inhibition constant (Ki) on Xa was < 100 nM; at Thrombin, < 10 nM; on plasmin (setting [1]), < 10 nM; on plasma kallikrein (setting [2]) it was < 10 nM.
`N=C(N)c1ccc(CNC(=O)[C@H](Cc2cccc(CN)c2)NC(=O)[C@H](NS(=O)(=O)Cc2cccc(C(=O)O)c2)C(c2ccccc2)c2ccccc2)cc1` [compound 23]: the Ki is < 100 nM on Xa, < 100 nM at Thrombin, < 10 nM at plasmin (setting [1]) and < 10 nM on plasma kallikrein (setting [2]).
Turning to `N=C(N)c1ccc(CNC(=O)[C@H](Cc2cccc(CN)c2)NC(=O)[C@@H](CCc2ccc(O)cc2)NS(=O)(=O)Cc2ccccc2)cc1` [compound 24], the Ki on Xa was < 10 nM; at Thrombin, < 1000 nM; at plasmin (setting [1]), < 10 nM; at plasma kallikrein (setting [2]), < 10 nM.
For `N=C(N)c1ccc(CNC(=O)[C@H](CCc2ccc(CN)cc2)NC(=O)[C@@H](CCc2ccc(O)cc2)NS(=O)(=O)Cc2ccccc2)cc1` [compound 26], the Ki on Xa was < 10 nM; on Thrombin, < 1000 nM; at plasmin (setting [1]), < 10 nM; on plasma kallikrein (setting [2]), < 10 nM.
For the molecule `N=C(N)c1ccc(CNC(=O)[C@H](CCc2ccccc2)NC(=O)[C@@H](CCc2ccc(O)cc2)NS(=O)(=O)Cc2ccccc2)cc1` [compound 27], the Ki on Xa is < 10 nM; on Thrombin it was < 1000 nM; at plasmin (setting [1]), < 10 nM; on plasma kallikrein (setting [2]), < 10 nM; on plasma kallikrein (setting [4]), < 1 nM.
As for `N=C(N)c1ccc(CNC(=O)[C@H](Cc2ccc(CN)cc2)NC(=O)[C@@H](CCCc2ccccc2)NS(=O)(=O)Cc2ccccc2)cc1` [compound 28], the Ki on Xa was < 1000 nM; at Thrombin, < 1000 nM; on plasmin (setting [1]), < 10 nM; on plasma kallikrein (setting [2]), < 10 nM.
In the case of `N=C(N)c1ccc(CNC(=O)[C@H](Cc2ccc(CN)cc2)NC(=O)[C@@H](CCCc2ccccc2)NS(=O)(=O)Cc2ccc(C(=O)O)cc2)cc1` [compound 29], the Ki was < 1000 nM on Xa; < 1000 nM on Thrombin; < 10 nM at plasmin (setting [1]); < 10 nM on plasma kallikrein (setting [2]); < 1 nM at plasma kallikrein (setting [4]).
`N=C(N)c1ccc(CNC(=O)[C@H](Cc2ccc(CN)cc2)NC(=O)[C@@H](CCCc2ccccc2)NS(=O)(=O)Cc2cccc(C(=O)O)c2)cc1` [compound 30]: the Ki is < 1000 nM at Xa, > 1000 nM at Thrombin, < 10 nM on plasmin (setting [1]) and < 10 nM on plasma kallikrein (setting [2]).
As for `N=C(N)c1ccc(CNC(=O)[C@H](CCc2ccc(CN)cc2)NC(=O)[C@@H](CCCc2ccccc2)NS(=O)(=O)Cc2ccccc2)cc1` [compound 31], the Ki on Xa is < 1000 nM; on Thrombin it was < 100 nM; at plasmin (setting [1]) it was < 10 nM; at plasma kallikrein (setting [2]), < 100 nM.
Regarding `N=C(N)c1ccc(CNC(=O)[C@H](Cc2c[nH]cn2)NC(=O)[C@@H](CCCc2ccccc2)NS(=O)(=O)Cc2ccccc2)cc1` [compound 32], the Ki on Xa was < 1000 nM; at Thrombin it was < 100 nM; on plasmin (setting [1]), < 10 nM; at plasma kallikrein (setting [2]), < 100 nM.
Turning to `N=C(N)c1ccc(CNC(=O)[C@H](Cc2c[nH]cn2)NC(=O)[C@@H](CCCc2ccccc2)NS(=O)(=O)Cc2cccc(C(=O)O)c2)cc1` [compound 33], the inhibition constant Ki was < 1000 nM at Xa, > 1000 nM at Thrombin, < 10 nM on plasmin (setting [1]) and < 100 nM at plasma kallikrein (setting [2]).
Take `CC(C)(C)OC[C@@H](NS(=O)(=O)Cc1ccccc1)C(=O)N[C@@H](Cc1cccc(CN)c1)C(=O)NCc1ccc(C(=N)N)cc1` [compound 71]: the Ki at Xa is > 1000 nM.
Regarding `N=C(N)c1ccc(CNC(=O)[C@H](Cc2cccc(CN)c2)NC(=O)[C@@H](CO)NS(=O)(=O)Cc2ccccc2)cc1` [compound 72], the Ki at plasma kallikrein (setting [2]) was < 100 nM.

The term Ki denotes the dissociation constant of the complex between target and ligand, obtained from inhibition or displacement.
